# Experimental data taken from patent US20210228545A1, “METHODS OF TREATING CONDITIONS RELATED TO THE S1P1 RECEPTOR” (Arena Pharmaceuticals, Inc., priority 2018, published 2021).
# How the values were obtained:
# [1] = Phase II, relapsing-remitting multiple sclerosis; cited from earlier work
# [2] = short-term high dose; cited from earlier work
# [3] = murine; cited from earlier work
# [4] = prophylactic oral 1 mg/kg, three times a week; cited from earlier work
# [5] = mice; cited from earlier work
# [6] = spared nerve injury model; cited from earlier work
# [7] = in vivo; cited from earlier work
# [8] = molecular target: T1, CYP2C8 (Homo sapiens, UniProt P10632); assay: CYP reaction phenotyping in HLMs with selective chemical inhibitor; format: in vitro ADME
# T1 construct: human liver microsomes from a pool of 200 individuals; from tissue; host or cells: human liver microsomes, pool of 200 individuals
# T1 sequence (P10632 1-490): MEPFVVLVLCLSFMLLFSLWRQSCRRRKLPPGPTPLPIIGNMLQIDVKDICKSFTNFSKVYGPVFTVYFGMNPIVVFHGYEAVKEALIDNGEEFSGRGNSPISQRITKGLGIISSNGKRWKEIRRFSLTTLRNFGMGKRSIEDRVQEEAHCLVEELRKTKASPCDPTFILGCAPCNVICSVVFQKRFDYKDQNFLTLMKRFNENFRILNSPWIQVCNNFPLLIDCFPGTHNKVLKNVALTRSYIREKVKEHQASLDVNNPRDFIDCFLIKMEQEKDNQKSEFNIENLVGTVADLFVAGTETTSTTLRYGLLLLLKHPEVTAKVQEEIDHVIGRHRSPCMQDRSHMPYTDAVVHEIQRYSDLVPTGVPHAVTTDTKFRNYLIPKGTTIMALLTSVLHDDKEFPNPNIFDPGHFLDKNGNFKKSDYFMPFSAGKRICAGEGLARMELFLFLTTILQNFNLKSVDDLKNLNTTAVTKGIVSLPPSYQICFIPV
smiles,measurement,setting,value
CCCCCCCCc1ccc(CCC(N)(CO)CO)cc1 [FTY720],Effect on MRI lesions and clinical disease activity,[1],reduce the number of lesions detected by magnetic resonance imaging (MRI) and clinical disease activity
same,Effect on ocular infiltrates,[2],rapidly reduced ocular infiltrates
same,Effect on contact hypersensitivity,[3],impair initiation
same,Development of EAMG,[4],completely prevented
same,Effect on ovariectomy-induced osteoporosis,[5],relieved ovariectomy-induced osteoporosis
same,Effect on nociceptive behavior,[6],reduce the nociceptive behavior
same,Adverse event in clinical trials,[7],transient asymptomatic bradycardia
Cc1ccc(C)c(OCCCC(C)(C)C(=O)O)c1 [gemfibrozil],Inhibition of conversion of Compound 1 to first oxidative metabolite,[8],85%
same,Inhibition of conversion of Compound 1 to ketone metabolite,[8],60%
same,Inhibition of conversion of Compound 1 to second oxidative metabolite,[8],47%
